Reference: a melting point compilation (Tetko et al.; mined from patent text by program, amines drawn as free bases though some values may be those of a salt)

melting point | Structure (SMILES)
193 to 195 °C | COC(=O)c1cc(NC(=O)Nc2ccc([N+](=O)[O-])cc2)cc(C(=O)OC)c1
120 °C | O=C(O)[C@H](Cc1ccc([N+](=O)[O-])cc1)NC1=CC(=O)C12CCCCC2
292 to 294 °C | COc1cc2ncc(C#N)c(Nc3ccc(C)c(Br)c3)c2cc1OC
194 to 196 °C | Oc1c(Cl)cc2c(-c3ccccc3F)noc2c1Cl
123 to 125 °C | O=C(O)CCc1ccc(OCc2ccc(Oc3ccccc3)cc2)c(F)c1
199 to 200 °C | O=c1[nH]c2ccccc2c(=O)c(Cc2ccccc2)c1O
128 to 129 °C | CS(=O)(=O)c1ccc(-c2cnn(CC(F)(F)F)c(=O)c2NC2CCCO2)cc1 (configuration not stated)
152 to 153 °C | CCCc1c(C(C)C)nc(C(C)C)c(C(C)O)c1-c1ccc(F)cc1O (configuration not stated)
58 to 60 °C | CCN(Cc1csc(C(C)C)n1)C(=O)N[C@H](C(=O)N[C@@H](Cc1ccccc1)C[C@H](O)[C@H](Cc1ccccc1)NC(=O)OCc1cncs1)C(C)C
101 to 102 °C | CCCNC(=O)c1cc(-c2ccc(OC)cc2)nn(CC2CC2)c1=O
191 to 192 °C | O=c1[nH]cnc(C(F)(F)F)c1Cl
159 to 162 °C | Cc1ccccc1NC(=O)Nc1ccc(-c2c(CCO)sc3ncnc(N)c23)cc1
228 °C | CNC(=S)N1CCc2[nH]cnc2C1c1ccccc1 (configuration not stated)
36 to 39 °C | Cc1ccc(C(O)C2OC2C(C)(C)C)cc1 (configuration not stated)
161 to 162 °C | COc1ccc([C@H]2Cc3c(cccc3C(F)(F)F)NC(=O)[C@H]2OC(=O)c2ccccc2C(=O)O)cc1 (relative stereo)
65 to 70 °C | COC(=O)C(C(=O)c1ccc(Cc2cn(C)c3ccc(NC(=O)OC4CCCC4)cc23)c(OC)c1)S(=O)(=O)c1ccccc1 (configuration not stated)
171 to 173 °C | COc1ccc(F)cc1C(C)(C)CC(=O)C(=O)Nc1ccc2c(=O)onc(C)c2c1
205 °C | Nc1nccc(Oc2ccc3c(C(=O)Nc4ccc(F)c(C(F)(F)F)c4)cccc3c2)n1
235 to 236 °C | COc1ccc(S(C)(=O)=O)cc1-c1nc2ccc(C(C)(C)CNC=O)cc2[nH]1
197 to 198 °C | CCOC(=O)C(O)c1oc(-n2ccnc2C)nc1-c1ccc(Cl)cc1 (configuration not stated)
140 to 143 °C | CC(c1ccc2ncccc2c1)n1nnc2ccc(-c3ccc(C(N)=O)c(Cl)c3)nc21 (configuration not stated)
229 to 234 °C | CN(CCN[C@H]1CC[C@H](c2ccccc2)CC1)c1ccc2[nH]c(=O)oc2c1
157 to 158 °C | CCn1ncc2c(NCCc3ccccc3)c3ccccc3nc21

melting point | Structure (SMILES)
132 °C | CCCCCCCCCCCCS(=O)(=O)Nc1cc(NC(=O)c2ccc(F)c(F)c2)ccc1OC
> 400 °C | O=c1[nH]cnc2ccc(S(=O)(=O)Cl)cc12
> 250 °C | O=C1Nc2cc(C(F)(F)F)cnc2C1C(=O)OCc1ccccc1 (configuration not stated)
90.5 to 92.5 °C | CCN1C[C@@H](O)[C@H](Sc2ccccc2Cl)C1 (relative stereo)
183 to 184 °C | O=C(NC=CCc1cn(C2CC(O)C(CO)O2)c(=O)[nH]c1=O)C(F)(F)F (configuration not stated)
59 to 62 °C | O=C1[C@@H](CCCO)O[C@H](c2ccccc2)c2ccccc2N1Cc1ccccc1 (relative stereo)
175 to 178 °C | CC(C)=C1CNc2ccc(O)cc21
160 to 164 °C | CC(Oc1ccccc1Cl)c1nnc(N)s1 (configuration not stated)
148 to 149 °C | CCOC(=O)c1c[nH]cc1C(=O)OCC
78 to 80 °C | O=C(Cl)c1ccc(OCc2ccccc2)c(Cl)c1
109 to 111 °C | CC(=O)NC(C)c1ccc(CN2CCN(c3cccc(F)n3)CC2)cc1 (configuration not stated)
174 to 175 °C | CC1(C)Oc2ccc(C#N)cc2[C@@H](NC(=O)c2cscc2-n2cccc2)[C@@H]1O
184 to 185 °C | CC1CC(=O)NN=C1c1ccc2c(c1)N(C)C(=O)C(C)O2 (configuration not stated)
252 to 253 °C | CN1CCC(N2C(=O)Nc3ccccc3C2c2ccccc2)CC1 (configuration not stated)
206 to 208 °C | CC(C)=C1C(=O)N(c2ccc(O)cc2)C(=O)/C1=C(\C)c1cc(C)oc1C
118 to 119 °C | CCc1c(OC)nc(OC)nc1C(=O)c1cc(Cl)cc(Cl)c1
150 °C | Cc1cc(SCc2ccc(OCc3ccccn3)cc2)ccc1OCC(=O)O
135 to 140 °C | O=c1oc(-c2ccc(SC(F)(F)F)cc2)nc2cccc(Cl)c12
67 to 70 °C | CC(C)(CO)Oc1ccc(COc2ccc(Cl)cc2)cc1
66 to 77 °C | O=C(Cc1ccccc1)NCC(=O)c1ccccc1
152 to 153 °C | CC(C)(C)[Si](C)(C)OC1CCN(S(=O)(=O)c2ccc(N3CCCCC3)cc2)C1=S (configuration not stated)
138 °C | CC(CN1CCCC1)N1c2ccccc2Sc2ccc(C(=O)NCc3c(Cl)cccc3Cl)cc21 (racemic)
119 to 122 °C | CC(=O)NC[C@H]1CN(c2ccc(C3=CCSCC3)c(F)c2)C(=O)O1

melting point | Structure (SMILES)
239 to 245 °C | CC(COc1ccc(C(N)=O)c(O)c1)NCC(O)COc1cccc2c1CCC(=O)N2 (configuration not stated)
83 to 85 °C | CC(C)(C)OC(=O)N[C@@H](Cc1ccccc1)[C@@H](O)[C@@H](O)C1CC1
> 330 °C | Cc1ccc2[nH]c3c(c2c1)CC(=O)Nc1cccnc1-3
183 to 185 °C | O=C1c2cc3nnn(Cc4cccc(F)c4)c(=O)c3cc2OC2CCCN12 (configuration not stated)
190 to 193 °C | Cc1cccc(N2CCOC2=O)c1COc1cccn2c(CO)c(C)nc12
100 to 103 °C | CCON(C(=O)Cc1c(C)cc(Cl)cc1C)C1(C#N)CCN(OC)CC1
147 to 148 °C | CNC(=S)C1=CC(C)(C)Oc2ccc([N+](=O)[O-])cc21
64 °C | CSC(=S)C1(c2ccccn2)CCCS1 (configuration not stated)
102 to 104 °C | CCCCc1cc2ccc(C(=O)O)cc2o1
157 to 158 °C | Cc1nc(-n2cnn(CC3CC3)c2=O)sc1C(=O)NCc1cocn1
68 to 71 °C | CCOC(=O)Cc1ccc2c(c1)C(=O)c1cc(Cl)ccc1CS2
114 to 116 °C | OCc1nccc(N2CCCC2)n1
225 °C | O=C(CCCl)Nc1ccc(C(=O)O)cc1
147 °C | O=C(NC[C@H]1CN(c2ccc(N3CCN(C(=O)OCc4ccccc4)CC3)c(F)c2)C(=O)O1)C(F)F
103 °C | Cc1cccc(OCCF)c1S(N)(=O)=O
268 to 270 °C | Cc1cc(C)cc(Sc2cc(=O)[nH]c(C)c2CO)c1
92 to 95 °C | CCOCCOc1cc(C(C)C)c(NC(=O)CN2CCN(CCSc3nc4ccccc4o3)CC2)c(C(C)C)c1
141 to 143 °C | CC[C@H]1CC[C@H](CCc2ccc(C(=O)CCC(=O)O)cc2)CC1
187 to 189 °C | CC(C)(C)c1nc(C=O)nc(C(C)(C)C)c1O
178 to 180 °C | COC(=O)c1nc2c(c(-c3cccs3)nn2-c2ccccc2)c(N)c1C(=O)OC
191 to 192 °C | Cc1cc(Nc2cnc(C(=O)N(C)CCO)c(Nc3ccc(Cl)cc3)n2)n[nH]1
81 to 84 °C | C[N+]([O-])=C(Cn1ccnc1)c1ccc(F)cc1
134 to 135 °C | CC(=O)NCCC1CCc2ccn3nc(C)c(C)c3c21 (configuration not stated)

Structure (SMILES) | melting point
C1=C(c2c[nH]c3ccccc23)CCN(CC2COc3ccc4[nH]ccc4c3O2)C1 (configuration not stated) | 126 °C
COC(=O)c1cccnc1N(C)C1CCN(Cc2ccccc2)CC1 | 109 to 110 °C
O=[N+]([O-])N=C1NC(O)CN1Cc1ccc(Cl)nc1 (configuration not stated) | 170 °C
